Activity calls are given as the source filed them. The rule behind the calls is not given here.
Assays:
Format in all cases: functional
K562 = test: Growth inhibition of human K562 cells at 10^-5 M incubated for 48 hrs by sulforhodamine B assay relative to control
NCI-H23 = test: Growth inhibition of human NCI-H23 cells at 10^-5 M incubated for 48 hrs by sulforhodamine B assay relative to control
NCI-H460 = test: Growth inhibition of human NCI-H460 cells at 10^-5 M incubated for 48 hrs by sulforhodamine B assay relative to control
SW-620 = test: Growth inhibition of human SW620 cells at 10^-5 M incubated for 48 hrs by sulforhodamine B assay relative to control
UACC-62 = test: Growth inhibition of human UACC62 cells at 10^-5 M incubated for 48 hrs by sulforhodamine B assay relative to control
IGROV-1 = test: Growth inhibition of human IGROV1 cells at 10^-5 M incubated for 48 hrs by sulforhodamine B assay relative to control
OVCAR-8 = test: Growth inhibition of human OVCAR8 cells at 10^-5 M incubated for 48 hrs by sulforhodamine B assay relative to control
ACHN = test: Growth inhibition of human ACHN cells at 10^-5 M incubated for 48 hrs by sulforhodamine B assay relative to control
RXF 393 = test: Growth inhibition of human RXF393 cells at 10^-5 M incubated for 48 hrs by sulforhodamine B assay relative to control
SN12C = test: Growth inhibition of human SN12C cells at 10^-5 M incubated for 48 hrs by sulforhodamine B assay relative to control
TK-10 = test: Growth inhibition of human TK10 cells at 10^-5 M incubated for 48 hrs by sulforhodamine B assay relative to control
DU-145 = test: Growth inhibition of human DU145 cells at 10^-5 M incubated for 48 hrs by sulforhodamine B assay relative to control
Candida albicans = test: Antifungal activity against Candida albicans at 100 ug/ml by disc diffusion method; conditions: read-out: IZ

In the case of `Clc1nc2ccccc2cc1Cn1nnnc1CSc1ccccc1`, the “growth inhibition (GI)” value (K562) is reported as “Active”, the “growth inhibition (GI)” value (NCI-H23) is reported as “Active” and the “growth inhibition (GI)” value (NCI-H460) is reported as “Active”. For the same compound, the “growth inhibition (GI)” value (SW-620) was “Active”, the “growth inhibition (GI)” value (UACC-62) was “Active” and the “growth inhibition (GI)” value (IGROV-1) was “Active”. The “growth inhibition (GI)” value (OVCAR-8) was “Active”, the “growth inhibition (GI)” value (ACHN) was “Active” and the “growth inhibition (GI)” value (RXF 393) was “Active”. The “growth inhibition (GI)” value (SN12C) was “Active”, the “growth inhibition (GI)” value (TK-10) was “Active” and the “growth inhibition (GI)” value (DU-145) was “Active”. The zone of inhibition at 100 µg/mL (Candida albicans) was 12 mm.

— ChEMBL document CHEMBL4004849, “Tetrazolylmethyl quinolines: Design, docking studies, synthesis, anticancer and antifungal analyses” (2017)
